16 sequences from US10363299B2, “Compositions and methods for preventing and treating rhinovirus infections” (priority 2015, dated 2019) can be followed below.

The test system of experiment [1] is CD4+ T cells. In words: Tetramer-guided epitope mapping (TGEM): pMHCII tetramer staining of PBMC cultures stimulated with RV peptides. The following applies: one value per subject. It counts as cell-based, human. The source says: (§1) Peptide libraries consisting of 20mers with a 12 amino acid overlap were generated to span the VP1, VP2 and VP4 protein sequences of RV-A16, and VP1 and VP2 protein sequences of RV-A39 (UniprotKB accession # Q82122, Q5XLP5). […] Biologically relevant pMHCII complexes were identified by tetramer-guided epitope mapping (TGEM). This involved 2 steps: First, PBMC cultures established from subjects with known HLA-DR types were stimulated with RV peptide pools derived from VP1, VP2, or VP4, and then stained with pMHCII tetramer pools composed of HLA-DR molecules corresponding to those expressed in the test subject; Second, positive signals were de-convoluted by repeating and staining with single-peptide tetramers. Tetramers that gave strong positive signals (˜1% of total CD4+ T cells) in the single peptide-tetramer screen in more than one subject, were then re-tested for their ability to detect RV-specific CD4+ T cells in non-stimulated PBMCs (denoted as ex vivo analysis) in multiple subjects.
(§2) All experiments were performed in subjects expressing HLA-DR molecules corresponding to the selected tetramer. Precursor frequencies of circulating tetramer+ cells were then calculated by established methods. Tetramer+ cells were phenotyped for surface markers by staining PBMCs with PE-conjugated tetramers, labeling with anti-PE magnetic beads, enriching with an AutoMACS separator (Miltenyi Biotec, Auburn, Calif., USA), and then counterstaining for surface markers. A tetramer displaying an irrelevant peptide, GAD555-567, was used as a staining control. For simplicity, identified RV-A16 peptide epitopes were given a numerical designation.

In experiment [2] the test system is RV-specific CD4+ T cells. Nature of the experiment: Direct ex vivo pMHCII tetramer staining of non-stimulated PBMCs. Format: cell-based, human. Details: key to Validated: Y means validated. The following applies: for Ex Vivo Frequency (# per 10^6 CD4): directly ex vivo, without culture, one value per subject; for Validated: reliable ex vivo signal.
Text: as §1, §2

Setting [3] is: HLA allele 1*0101 tetramer, tetramer-positive CD4+ T cells in peptide-stimulated PBMC cultures.
The mark [4] stands for this setting: HLA allele 1*0401 tetramer, peptide-stimulated PBMC cultures.
Where [5] appears, read: HLA allele 1*0404 tetramer, peptide-stimulated PBMC cultures.
[6] abbreviates: HLA allele 1*0701 tetramer, peptide-stimulated PBMC cultures.
The mark [7] stands for this setting: HLA allele 1*1501 tetramer, peptide-stimulated PBMC cultures.
Where [8] appears, read: HLA allele 1*0301 tetramer, peptide-stimulated PBMC cultures.
[9] abbreviates: HLA allele 1*1101 tetramer, peptide-stimulated PBMC cultures.
Where [10] appears, read: HLA allele DRB5 tetramer, peptide-stimulated PBMC cultures.

Several values for one entry are separate records, joined by “and”; a condition that tells them apart may be missing. Identical values can stand only once.

Consider HIVMQYMYVPPGAPIPTTRN [VP1P18], for which the “In Vitro Frequency (% CD4)” value in experiment [1] (setting [3]) is 3.51 % CD4 and 0 % CD4 (2×); in experiment [1] (setting [4]) it was 0 % CD4 and 0.65 % CD4; in experiment [1] (setting [5]), 1.84 % CD4 and 4.22 % CD4 and 2.76 % CD4. The “Ex Vivo Frequency (# per 10^6 CD4)” value was 2 # per 10^6 CD4 in experiment [2] (HLA allele 1*0401 tetramer); 247 # per 10^6 CD4 and 10 # per 10^6 CD4 and 52 # per 10^6 CD4 and 5 # per 10^6 CD4 in experiment [2] (HLA allele 1*0404 tetramer). For the same sequence, the Validated result in experiment [2] (HLA allele 1*0404 tetramer) is given as “Y”.

Take FTYARFDSEITMVPSVAAKD [VP1P15]: in experiment [1] (setting [6]), the “In Vitro Frequency (% CD4)” value is 0.26 % CD4 and 0 % CD4.

Turning to SNNSATLIVPYVNAVPMDSM [VP2P25], the “In Vitro Frequency (% CD4)” value in experiment [1] (setting [4]) was 0 % CD4 and 0.46 % CD4; in experiment [1] (setting [7]), 2.26 % CD4 and 9.02 % CD4. Moreover, the “Ex Vivo Frequency (# per 10^6 CD4)” value in experiment [2] (HLA allele 1*1501 tetramer) is 31 # per 10^6 CD4 and 5 # per 10^6 CD4 and 13 # per 10^6 CD4 and 71 # per 10^6 CD4. Also, the Validated entry in experiment [2] (HLA allele 1*1501 tetramer) was “Y”.

As for NWLNFDGTLLGNLLIFPHQF [VP2P22], the “In Vitro Frequency (% CD4)” value in experiment [1] (setting [3]) was 0.35 % CD4 and 0 % CD4 (2×); in experiment [1] (setting [8]), 2.61 % CD4 and 0.75 % CD4; in experiment [1] (setting [4]) it was 3.38 % CD4 and 0.89 % CD4; in experiment [1] (setting [9]), 0 % CD4 (2×) and 1.31 % CD4. Also, in experiment [2] (HLA allele 1*0401 tetramer), the “Ex Vivo Frequency (# per 10^6 CD4)” value was 1 # per 10^6 CD4.

For PSVEACGYSDRIIQITRGDS [VP2P1], in experiment [1] (setting [9]), the “In Vitro Frequency (% CD4)” value is 1.59 % CD4 and 1.16 % CD4 and 0.66 % CD4.

With TSKGWWWKLPDALKDMGIFG [VP2P10], in experiment [1] (setting [10]), the “In Vitro Frequency (% CD4)” value was 3.93 % CD4 and 4.49 % CD4 and 0.38 % CD4. In experiment [2] (HLA allele DRB5 tetramer), the “Ex Vivo Frequency (# per 10^6 CD4)” value is 60 # per 10^6 CD4 and 24 # per 10^6 CD4 and 136 # per 10^6 CD4; the Validated result was “Y”.

As for FWQHGQPFPRFSLPFLSIAS [VP1P22], in experiment [1] (setting [10]), the “In Vitro Frequency (% CD4)” value was 3.52 % CD4 and 0.74 % CD4. The “Ex Vivo Frequency (# per 10^6 CD4)” value in experiment [2] (HLA allele DRB5 tetramer) was 10 # per 10^6 CD4 and 4 # per 10^6 CD4.

Consider RPPRAVQYSHTHTTNYKLSS [VP1P32], for which, in experiment [1] (setting [6]), the “In Vitro Frequency (% CD4)” value is 0.53 % CD4 and 0 % CD4.

As to NEKQPSDDNWLNFDGTLLGN [VP2P21], the “In Vitro Frequency (% CD4)” value was 1.57 % CD4 and 0.87 % CD4 in experiment [1] (setting [8]); 5.13 % CD4 and 0.89 % CD4 in experiment [1] (setting [4]); 0 % CD4 and 0.65 % CD4 in experiment [1] (setting [5]). The “Ex Vivo Frequency (# per 10^6 CD4)” value is 29 # per 10^6 CD4 and 4 # per 10^6 CD4 and 6 # per 10^6 CD4 in experiment [2] (HLA allele 1*0301 tetramer); 9 # per 10^6 CD4 and 63 # per 10^6 CD4 and 3 # per 10^6 CD4 in experiment [2] (HLA allele 1*0401 tetramer). Moreover, the Validated result in experiment [2] (HLA allele 1*0301 tetramer) and in experiment [2] (HLA allele 1*0401 tetramer) was “Y” throughout.

QIRRKFEMFTYARFDSEITM [VP1P14]: the “In Vitro Frequency (% CD4)” value in experiment [1] (setting [4]) was 0.59 % CD4 and 0.96 % CD4. For the same sequence, in experiment [2] (HLA allele 1*0401 tetramer), the “Ex Vivo Frequency (# per 10^6 CD4)” value is on record as 4 # per 10^6 CD4.

With EITMVPSVAAKDGHIGHIVM [VP1P16], the “In Vitro Frequency (% CD4)” value in experiment [1] (setting [6]) was 0.60 % CD4 and 0 % CD4.

Regarding ITVSISPMCAEFSGARAKTV [VP2P31], the “In Vitro Frequency (% CD4)” value in experiment [1] (setting [7]) was 0.37 % CD4 and 0 % CD4.

VVTNDMGTLCSRIVTSEQLH [VP1P27]: the “In Vitro Frequency (% CD4)” value in experiment [1] (setting [6]) was 0 % CD4 and 0.13 % CD4.

Regarding RGDSTITSQDVANAVVGYGV [VP2P3], the “In Vitro Frequency (% CD4)” value in experiment [1] (setting [5]) was 6.86 % CD4 and 1.61 % CD4. In addition, in experiment [2] (HLA allele 1*0404 tetramer), the “Ex Vivo Frequency (# per 10^6 CD4)” value is 36 # per 10^6 CD4 and 1 # per 10^6 CD4 and 38 # per 10^6 CD4 and 5 # per 10^6 CD4; the Validated result was “Y”.

With EQLHKVKVVTRIYHKAKHTK [VP1P29], the “In Vitro Frequency (% CD4)” value in experiment [1] (setting [9]) was 3.35 % CD4 and 2.79 % CD4. In addition, the “Ex Vivo Frequency (# per 10^6 CD4)” value in experiment [2] (HLA allele 1*1101 tetramer) is 0 # per 10^6 CD4 (2×) and 3 # per 10^6 CD4.

Turning to SIASAYYMFYDGYDGDTYKS [VP1P24], the “In Vitro Frequency (% CD4)” value in experiment [1] (setting [7]) is 0.31 % CD4 and 0 % CD4 (2×).
